Legend:
A172 GBM cells [1] = experiment: Boyden Chamber invasion assay; assay type: cell-based; conditions: 10 μM; for GBM cell invasion: 24 hours
Protocol: FIG. 9. […] Boyden Chamber assay was performed on A172 GBM cells to analyze minimal doses (10 μM) of TrkB inhibitors on preventing GBM cell invasion. Cells were pretreated in low serum media for 24 hours. Bottoms of transwell inserts were coated with fibronectin and tops were coated with Matrigel prior to cells being seeded with treatment media (low serum; n=3 per treatment). After 24 hours, cells were cleaned off the top of the Matrigel, and cells that invaded into the pores of the transwell were stained with 1% Crystal Violet and (A) imaged at 20×.

[2] = test system: prostaglandin E2 production; conditions: inhibitors of prostaglandin E2 production; cited from earlier work
GPR150 = molecular target: T1, GPR150 (Homo sapiens, UniProt Q8NGU9); experiment: PRESTO-Tango GPCR assay, GPR150; assay type: cell-based; conditions: 10 μM
T1 construct: expressed in transfected cells

Arc protein = experiment: BDNF-induced Arc expression, western blot, primary cortical neurons; assay type: cell-based, mouse; conditions: BDNF co-treatment, tested 1 to 20 μM
Protocol: The following procedure was used to quantify western blot analyses. First, equal quantity of protein lysate was analyzed by SDS-PAGE for each biological replicate. Second, the exposure time of the film to the ECL chemiluminescence was the same for each biological replicate. Third, all the exposed films were scanned on a HP Laser Jet Pro M377dw scanner in grayscale at a resolution of 300 dpi. Fourth, the look-up table (LUT) of the scanned tiff images was inverted and the intensity of each band was individually estimated using the selection tool and the histogram function in Adobe Photoshop CC 2021 software. Finally, the intensity of each band was divided by the intensity of its respective loading control (b-actin) to provide the normalized value used for statistical analysis.

A172 GBM cells [3] = experiment: LDH cytotoxicity assay, A172; assay type: cell-based; conditions: 24 hours, compared to DMSO
U87 GBM cells [4] = experiment: Scratch migration analysis, U87; conditions: 24 hours of treatment
[5] = test system: Neuro2a cells stably expressing Ntrk2-Myc-FLAG; experiment: Neurite outgrowth assessment; assay type: cell-based; conditions: 10 μM with BDNF
Protocol: For neurite outgrowth assay, Neuro2a cells were cultured in DMEM [supplemented with 10% HyClone FetalClone II serum (Cytiva, Global Life Sciences Solutions, Marlborough, MA), penicillin (50 units/ml), and streptomycin (50 μg/ml)] and transfected overnight using Lipofectamine 2000 (Invitrogen) according to the manufacturer's protocol.
Neuro2A cells transfected with a pCMV6-Ntrk2-Myc-DDK (FLAG) construct were selected with G418 (Geneticin) to produce a stable cell line that constitutively expresses tagged-TrkB. For neurite outgrowth assessment, cells were seeded on 15 mm glass coverslips in 12-well plates at a density of 2.0×10^4 per well. […] Phase contrast digital images were collected with a 20× objective 48 h after plating and the total number of viable cells, total number of neurites, and cells with neurites longer than 2 cells in diameter were counted (five fields per dish, three wells per condition).

A172 GBM cells [6] = experiment: AlamarBlue cell viability, A172; assay type: cell-based; conditions: 24, 48 and 72 hours, vs DMSO
Protocol: (§1) FIG. 6. Cannflavins A and B reduce the viability of Glioblastoma cells. Cell viability was measured using an AlamarBlue reaction after 24, 48, and 72 hours of treatment. […] Graphs represent mean±SEM.

Arc mRNA = Arc mRNA real-time reverse transcriptase PCR, primary cortical neurons; assay type: cell-based, mouse; conditions: 10 μM with BDNF; vs BDNF-alone control
U87 GBM cells [7] = experiment: LDH cytotoxicity assay, U87; assay type: cell-based; conditions: 24 hours, compared to DMSO
U87 GBM cells [8] = experiment: AlamarBlue cell viability, U87; assay type: cell-based; conditions: 24, 48 and 72 hours, vs DMSO
Protocol: as §1

[9] = test system: Ras-Raf-MEK-MAPK and PI3K/AKT/mTOR cascades; experiment: Signaling downstream of TrkB, western blot, primary cortical neurons; conditions: BDNF-induced increase; 0, 1, 5, 10, 20 μM
Protocol: Developing cerebral cortex from E16.5 CD-1 mouse embryos were dissected and then dissociated in trypsin solution for 15 min followed by three washes with phosphate-buffered saline (PBS). Trypsinized tissue was gently triturated to produce single cell suspension. Next, cells were seeded in poly-L-lysine/laminin coated 6-well plates at a density of 1.5×10^6 per well and maintained in Neurobasal medium containing B27 supplement (2%, Invitrogen, Grand Island, NY), penicillin (50 U/ml, Invitrogen), streptomycin (50 μg/ml, Invitrogen) and glutamine (1 mM, Sigma). For experiments involving BDNF (PeproTech, Rocky Hill, NJ), the growth factor was added directly to the culture medium at a final concentration of 100 ng/ml for the indicated period of time.
For western blot analyses, cells were collected by scraping in ice-cold radioimmunoprecipitation assay (RIPA) buffer (50 mM tris-HCl [pH 8.0], 300 mM NaCl, 0.5% Igepal-630, 0.5% deoxycholic acid, 0.1% SDS, 1 mM EDTA) supplemented with a cocktail of protease inhibitors (Complete Protease Inhibitor without EDTA, Roche Applied Science, Indianapolis, IN) and phosphatase inhibitors (Phosphatase Inhibitor Cocktail 3, Sigma-Aldrich). One volume of 2× Laemmli buffer (100 mM tris-HCl [pH 6.8], 4% SDS, 0.15% bromophenol blue, 20% glycerol, 200 mM b-mercaptoethanol) was added and the extracts were boiled for 5 min. Samples were adjusted to an equal concentration after protein concentrations were determined using the BCA assay (Pierce, Thermo Fisher Scientific). Lysates were separated using SDS-PAGE (polyacrylamide gel electrophoresis) and transferred to a nitrocellulose membrane. After transfer, the membrane was blocked in TBST (tris-buffered saline and 0.1% Tween 20) supplemented with 5% nonfat powdered milk and probed with the indicated primary antibody at 4° C. overnight. After washing with TBST, the membrane was incubated with the appropriate secondary antibody and visualized using enhanced chemiluminescence (ECL) reagents according to the manufacturer's guidelines (Pierce, Thermo Fisher Scientific).

A172 GBM cells [10] = experiment: Scratch migration analysis, A172; conditions: 24 hours of treatment
Mapk = Mapk phosphorylation, western blot, Neuro2a cells stably expressing Ntrk2-Myc-FLAG; assay type: cell-based; conditions: with BDNF
medulloblastoma cell = conditions: TrkB inhibition; cited from earlier work
nuclear Arc protein = conditions: 16.7 μM co-applied with recombinant BDNF for 6 h; cited from earlier work
nuclear Arc = experiment: BDNF-induced nuclear Arc, fluorescent immunocytochemistry, primary cortical neurons; assay type: cell-based, mouse; conditions: 10 μM co-treated with BDNF; vs BDNF-alone control
Protocol: Indirect immunofluorescence detection of antigens was carried out using cortical neurons cultured on poly-L-lysine/laminin coated coverslips in 24-well plates at a density of 0.1′10^6 per well. After experimental treatment, cells were washed twice with phosphate-buffered saline (PBS) and fixed for 30 min at room temperature with 4% paraformaldehyde in PBS. After fixation, cells were washed twice with PBS, permeabilized with PBST (PBS and 0.25% Triton X-100) for 20 min, blocked in blocking solution (5% goat non-immune serum in PBS) for another 30 min, and finally incubated overnight at 4° C. with the first primary antibody in blocking solution. The next day, coverslips were extensively washed with PBS and incubated for 2 hours at room temperature in the appropriate fluorophore-conjugated secondary antibody solution [Alexa Fluor 488-, Alexa Fluor 594, or Alexa Fluor 647-conjugated secondary antibody (Molecular Probes, Invitrogen) in blocking solution]. After washes with PBS, the coverslips were incubated again overnight in primary antibody solution for the second antigen, and the procedure for conjugation of the fluorophore-conjugated secondary antibody was repeated as above. Finally, cell nuclei were counterstained with 4′,6-diamidino-2-phenylindole (DAPI), and coverslips were mounted on glass slides with ProLong Antifade reagent (Invitrogen).
Cells cultured on coverslips from three independent biological replicates were imaged with a Nikon Eclipse Ti2-E inverted microscope equipped with a motorized stage, image stitching capability, and a 60× objective (Nikon Instruments, Melville, NY). Image analysis was performed with ImageJ and NIS Elements and the following procedure was used to quantify nuclear Arc level in response to BDNF-TrkB signaling. First, original raw tiff files were opened and the nucleus of all neurons in the image was located based on MAP2 immunostaining, then average pixel intensity corresponding to Arc immunofluorescence was measured for a 30-pixel spot positioned at the center of the nuclear compartment. […]

[11] = test system: 320 distinct nonolfactory human GPCRs; experiment: PRESTO-Tango GPCR assay (GPCRome panel); conditions: 10 μM; quadruplicate

T1 sequence (Q8NGU9 whole entry): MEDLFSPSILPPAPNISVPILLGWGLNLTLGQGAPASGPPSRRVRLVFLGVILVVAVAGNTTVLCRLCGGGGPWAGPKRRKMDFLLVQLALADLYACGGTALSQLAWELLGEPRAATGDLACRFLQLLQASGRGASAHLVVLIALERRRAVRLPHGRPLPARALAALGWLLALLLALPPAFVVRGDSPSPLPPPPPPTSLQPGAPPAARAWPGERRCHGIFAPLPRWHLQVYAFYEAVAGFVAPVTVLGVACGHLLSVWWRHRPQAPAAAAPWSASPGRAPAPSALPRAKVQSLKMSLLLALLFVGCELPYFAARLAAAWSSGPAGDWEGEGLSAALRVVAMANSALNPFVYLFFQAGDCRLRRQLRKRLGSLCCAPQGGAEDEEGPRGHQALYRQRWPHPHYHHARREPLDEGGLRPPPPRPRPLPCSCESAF

Compound: COc1cc(-c2cc(=O)c3c(O)c(CC=C(C)C)c(O)cc3o2)ccc1O [cannflavin B]
- GBM cell invasion (A172 GBM cells [1]): decrease in GBM cell invasion
- efficiency in reducing cell invasion compared with the other TrkB inhibitors (A172 GBM cells [1]; no statistical scores): tends to be more efficient in reducing cell invasion than cannflavin A and ANA-12
- anti-inflammatory potency relative to aspirin [2]: thirty times more potent than aspirin
- increase of GPR150 activity from baseline (GPR150): 4.4 fold-change
- concentrations resulting in significantly less Arc protein abundance than the BDNF-alone control (Arc protein): 1 to 20 µM
- LDH release / cell necrosis (A172 GBM cells [3]): slight increase in LDH release
- cell migration (U87 GBM cells [4]): reduce the migration
- BDNF-induced neurite outgrowths [5]: reduce
- cell viability (AlamarBlue) (A172 GBM cells [6]): reduced cell viability
- Arc mRNA abundance (Arc mRNA): prevent induction of Arc mRNA expression
- LDH release / cell necrosis (U87 GBM cells [7]): slight increase in LDH release
- cell viability (AlamarBlue) (U87 GBM cells [8]): reduced cell viability
- P-Akt level [9]: sharply reduced
- P-MAPK level [9]: sharply reduced
- P-mTOR level [9]: sharply reduced
- P-rpS6 level [9]: sharply reduced
- cell migration (A172 GBM cells [10]): reduce the migration

Compound: O=C(Nc1ccccc1C(=O)NC1CCCCNC1=O)c1cc2ccccc2s1 (stereo not shown) [ANA-12]
- GBM cell invasion (A172 GBM cells [1]): decrease in GBM cell invasion
- P-Mapk levels (Mapk): did not observe a decrease
- medulloblastoma cell survival (medulloblastoma cell): reduced medulloblastoma cell survival by inducing apoptosis
- number of cells with neurites twice the length of the cell ([5]; 24-hour treatment): decrease
- total number of neurites per field ([5]; 24-hour treatment): decrease
- viable cells ([5]; 24-hour treatment): decrease
- cell viability (AlamarBlue) (A172 GBM cells [6]): reduced cell viability
- cell viability (AlamarBlue) (U87 GBM cells [8]): reduced cell viability

Compound: O=C(O)[C@H]1O[C@@H](Oc2cc3oc(-c4ccccc4)cc(=O)c3c(O)c2O)[C@H](O)[C@@H](O)[C@@H]1O [baicalin]
- nuclear Arc protein level (nuclear Arc protein): enhance nuclear Arc protein level above the control measure

Compound: O=c1c(-c2ccc(O)cc2)coc2cc(O)cc(O)c12 [genistein]
- percentage of nuclei with Arc expression above threshold (Arc-positive neuronal abundance) (nuclear Arc): moderate increase
- nuclear Arc protein level (nuclear Arc protein): enhance nuclear Arc protein level above the control measure

Compound: Oc1cc(O)c2c(c1)O[C@H](c1cc(O)c(O)c(O)c1)[C@H](O)C2 [ECGC, (−)-epigallocatechin]
- percentage of nuclei with Arc expression above threshold (Arc-positive neuronal abundance) (nuclear Arc): moderate increase
- nuclear Arc protein level (nuclear Arc protein): enhance nuclear Arc protein level above the control measure

Compound: O=c1c(-c2ccc(O)cc2)coc2cc(O)ccc12 [daidzein]
- percentage of nuclei with Arc expression above threshold (Arc-positive neuronal abundance) (nuclear Arc): moderate increase
- nuclear Arc protein level (nuclear Arc protein): enhance nuclear Arc protein level above the control measure

Compound: COc1cc(-c2cc(=O)c3c(O)c(C/C=C(\C)CCC=C(C)C)c(O)cc3o2)ccc1O [cannflavin A]
- GBM cell invasion (A172 GBM cells [1]): reduce invasion
- anti-inflammatory potency relative to aspirin [2]: thirty times more potent than aspirin
- concentrations resulting in significantly less Arc protein abundance than the BDNF-alone control (Arc protein): 10 to 20 µM
- LDH release / cell necrosis (A172 GBM cells [3]): slight increase in LDH release
- cell migration (U87 GBM cells [4]): reduce the migration
- BDNF-induced neurite outgrowths [5]: reduce
- cell viability (AlamarBlue) (A172 GBM cells [6]): reduced cell viability
- Arc mRNA abundance (Arc mRNA): prevent induction of Arc mRNA expression
- LDH release / cell necrosis (U87 GBM cells [7]): slight increase in LDH release
- cell viability (AlamarBlue) (U87 GBM cells [8]): reduced cell viability
- agonist activity on GPCRs [11]: no effect on any of the 322 different GPCRs tested
- P-Akt level [9]: sharply reduced
- P-MAPK level [9]: sharply reduced
- P-mTOR level [9]: sharply reduced
- P-rpS6 level [9]: sharply reduced
- cell migration (A172 GBM cells [10]): reduce the migration

Compound: O=c1cc(-c2ccccc2)oc2c(O)c(O)ccc12 [7,8-DHF, 7,8-dihydroxyflavone]
- nuclear Arc protein level (nuclear Arc protein): enhance nuclear Arc protein level above the control measure
